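Cells were grown in 96-well plates and exposed to each compound for 48 hours at five concentrations; endpoints were interpolated linearly between bracketing concentrations, or set to the highest concentration if not reached. TGI is the concentration that stops growth completely.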
Tests used:
Assay in all cases: inhibition of tumour cell growth, NCI panel, 48 h
[1] = system: UACC-257 melanoma
[2] = system: SF-268 CNS
[3] = system: DU-145 prostate
[4] = system: NCI-H226 lung
[5] = system: U251 CNS
[6] = system: SW-620 colon
[7] = system: 786-0 renal
[8] = system: MDA-MB-231 breast
[9] = system: SK-MEL-5 melanoma
[10] = system: ACHN renal
[11] = system: OVCAR-5 ovarian
[12] = system: MOLT-4 leukemia
[13] = system: NCI/ADR-RES ovarian
[14] = system: IGROV1 ovarian
[15] = system: T-47D breast
[16] = system: EKVX NSCLC
[17] = system: SF-295 CNS
[18] = system: CAKI-1 renal
[19] = system: COLO 205 colon
[20] = system: LOX IMVI melanoma
[21] = system: SK-MEL-28 melanoma
[22] = system: CCRF-CEM leukemia
[23] = system: HCT-116 colon
[24] = system: UACC-62 melanoma
[25] = system: SK-MEL-2 melanoma
[26] = system: HCT-15 colon
[27] = system: BT-549 breast
[28] = system: NCI-H23 lung
[29] = system: SF-539 CNS
[30] = system: RXF 393 renal
[31] = system: SNB-75 CNS
[32] = system: HOP-62 NSCLC
[33] = system: SN12C renal
[34] = system: MCF7 breast
[35] = system: MDA-MB-435
[36] = system: HOP-92 NSCLC
[37] = system: PC-3 prostate
[38] = system: OVCAR-3 ovarian
[39] = system: HCC-2998 colon
[40] = system: UO-31 renal
[41] = system: A498 renal
[42] = system: OVCAR-4 ovarian
[43] = system: TK-10 renal
[44] = system: KM12 colon
[45] = system: NCI-H522 lung
[46] = system: SNB-19 CNS
[47] = system: A549 NSCLC
[48] = system: NCI-H460 lung
[49] = system: HS 578T breast
[50] = system: SR leukemia
[51] = system: K-562 leukemia
[52] = system: OVCAR-8 ovarian
[53] = system: HT29 colon
[54] = system: M14 melanoma
[55] = system: HL-60(TB) leukemia
[56] = system: MDA-N
[57] = system: MALME-3M melanoma
[58] = system: SK-OV-3 ovarian

SMILES: CC(C)(C)c1ccc(-n2c3nc(=O)n(-c4ccccc4C(F)(F)F)c(=O)c-3cc3ccccc32)cc1
- TGI [1]: 48 µM
- TGI [2]: > 100 µM
- TGI [3]: > 100 µM
- TGI [4]: 60.8 µM
- TGI [5]: 29.6 µM
- TGI [6]: 62.8 µM
- TGI [7]: > 100 µM
- TGI [8]: 63 µM
- TGI [9]: 29 µM
- TGI [10]: 60 µM
- TGI [11]: 55.2 µM
- TGI [12]: 53 µM
- TGI [13]: 89.8 µM
- TGI [14]: > 100 µM
- TGI [15]: > 100 µM
- TGI [16]: 64.9 µM
- TGI [17]: 60.5 µM
- TGI [18]: 66.8 µM
- TGI [19]: 43.7 µM
- TGI [20]: 28.6 µM
- TGI [21]: 23.5 µM
- TGI [22]: 41.9 µM
- TGI [23]: 25.1 µM
- TGI [24]: 33.8 µM
- TGI [25]: 30.8 µM
- TGI [26]: 31.3 µM
- TGI [27]: > 100 µM
- TGI [28]: > 100 µM
- TGI [29]: 63.4 µM
- TGI [30]: 51.7 µM
- TGI [31]: 71.3 µM
- TGI [32]: 40.3 µM
- TGI [33]: 59.1 µM
- TGI [34]: 72.9 µM
- TGI [35]: 35.6 µM
- TGI [36]: 51.7 µM
- TGI [37]: 51 µM
- TGI [38]: 31.4 µM
- TGI [39]: 28.4 µM
- TGI [40]: > 100 µM
- TGI [41]: 76.3 µM
- TGI [42]: > 100 µM
- TGI [43]: > 100 µM
- TGI [44]: 37.3 µM
- TGI [45]: 45.4 µM
- TGI [46]: > 100 µM
- TGI [47]: > 100 µM
- TGI [48]: 16 µM
- TGI [49]: 68.1 µM
- TGI [50]: 43.6 µM
- TGI [51]: 61.7 µM
- TGI [52]: 84.6 µM
- TGI [53]: 37.5 µM
- TGI [54]: 32.3 µM
- TGI [55]: 36.1 µM
- TGI [56]: 74.8 µM

SMILES: C=C[C@H]1CN2CCc3c([nH]c4cc(O)ccc34)[C@@H]2C[C@@H]1C[C@H]1c2[nH]c3ccccc3c2CCN1C
- TGI [1]: 3.98 µM
- TGI [2]: 15.8 µM
- TGI [3]: 33.9 µM
- TGI [4]: 36.3 µM
- TGI [5]: 3.24 µM
- TGI [6]: 3.87 µM
- TGI [7]: 3.36 µM
- TGI [8]: 16.9 µM
- TGI [9]: 3.14 µM
- TGI [10]: 10.1 µM
- TGI [11]: 31.4 µM
- TGI [12]: 12.4 µM
- TGI [13]: 24.6 µM
- TGI [14]: 3.39 µM
- TGI [15]: 36.1 µM
- TGI [16]: 20.1 µM
- TGI [17]: 9.15 µM
- TGI [18]: 14.6 µM
- TGI [19]: 3.31 µM
- TGI [20]: 9.67 µM
- TGI [21]: 3.27 µM
- TGI [22]: 3.98 µM
- TGI [23]: 5.94 µM
- TGI [24]: 8.46 µM
- TGI [25]: 7.65 µM
- TGI [57]: 26.9 µM
- TGI [26]: 6.54 µM
- TGI [27]: 27.2 µM
- TGI [28]: 31.8 µM
- TGI [29]: 3.33 µM
- TGI [31]: 6.62 µM
- TGI [32]: 9.37 µM
- TGI [33]: 13.3 µM
- TGI [34]: 6.01 µM
- TGI [35]: 3.76 µM
- TGI [36]: 8.08 µM
- TGI [37]: 9.69 µM
- TGI [38]: 9.55 µM
- TGI [39]: 3.44 µM
- TGI [40]: 4.81 µM
- TGI [41]: 5.83 µM
- TGI [42]: 18.7 µM
- TGI [43]: 22.1 µM
- TGI [44]: 9.13 µM
- TGI [45]: 8.29 µM
- TGI [46]: 17.6 µM
- TGI [47]: 15 µM
- TGI [48]: 4.96 µM
- TGI [49]: 11.1 µM
- TGI [50]: 6.41 µM
- TGI [51]: 7.88 µM
- TGI [52]: 11.8 µM
- TGI [53]: 6.4 µM
- TGI [58]: 27.4 µM
- TGI [54]: 3.14 µM
- TGI [55]: 7.69 µM
- TGI [56]: 3.22 µM

Source: PubChem BioAssay (NCI)
